From patent US9995734B2, “Human T cell line assay for evaluating the immunologic identity of glatiramer acetate preparations” (Mylan Inc., priority 2013, dated 2018)
Several values for one entry are separate records, joined by “and”; a condition that tells them apart may be missing. Equal values may be shown once.

Key:
Donor 1 COP T-Cell Lines = experiment: ATP proliferation assay (CellTiter Glo), Donor 1 COP T-cell lines, incl. reactivity to non-canonical GA peptides; type: cell-based, human; details: for luminescent ATP proliferation assay, mean: no antigen 5673 (Table 9)
Procedure: Proliferation was evaluated by measuring ATP content using a luminescent method (CellTiter Glo Luminescent Cell Viability Assay, Promega, Madison, Wis., cat. #G7571) or by measuring BrdU uptake by ELISA (Millipore cat. #2752), in both cases following kit instructions. A split well format was used. Cells in each well were resuspended and 65 μl transferred to the wells of each of two new U-bottom 96-well plates, to generate the replicate plates. For the initial screening, the original 96-well plate received mitomycin-treated autologous PBMC as APC plus 10 μg/mL antigen (GA). A first replicate plate received 100 μl., mitomycin-treated PBMC alone (2×10^5), and no antigen, and a second replicate plate received 100 μL mitomycin-treated PBMC plus GA at a final concentration of 10 μg/mL. Therefore, all three plates received autologous APC (PBMC) treated with mitomycin C to prevent cell division. […] The latter two plates were incubated for 3 days at 37° C., 6% CO2 before adding CellTiter Glo or BrdU and measuring signal. IL-2 was added at 10 U/mL to the original 96-well plate for expansion on Day 17. For subsequent screenings, mitomycin-treated EBV-transformed autologous B-LCL (2×10^5 to 5×10^5 cells/mL) were used as APC.
COP-responsive T-cell lines were obtained from Donor 1. In the initial stimulation, isolated PBMC were plated at 1×10^5 cells per well (5×10^5 cells/mL) with 10 μg/mL Copaxone and cultured as described above. IL-2 was added to all wells on Days 4 and 7 of culture, and the wells screened for reactivity on Day 14 using a luminescent proliferation assay in split well format. The original plate was restimulated, and IL-2 added 4 days after restimulation.
(§1) T-cell line 222-2D8, generated from Donor 1 by initial stimulation with COP, was shown in at least two experiments to proliferate comparably following restimulation with GMA and COP. […] ATP levels were measured at 48 hours after stimulation. The control in the GMA series was no antigen, and the control in the COP series was MBP. The response to GMA in comparison to COP at the 10 μg/mL dose in this assay was 103.4%.
In a second ATP proliferation assay, carried out on Day 56 or culturing following stimulation with 1, 3, or 10 μg/mL of GMA or COP, the response to GMA in comparison to COP at the 10 μg/mL dose was 107.1%.
as §1, with “line 222-2F1,” for “line 222-2D8,”, “Donor 222” for “Donor 1”, “was 85.1%.” for “was 103.4%.”
On Day 56 of culturing, after six total rounds of stimulation, cell line 222-2F12 was assayed for proliferation in response to stimulation with GA and a series of non-canonical peptides. For the assay, 0, 3, 10, or 30 μg/mL of each of peptides GL 14, GLT 631, GAT 111, and GAT 631, COP, and GMA, were added to the T-cell lines at 1×10^5 cells/mL, in the presence of mitomycin C-treated autologous B-LCL. Proliferation was measured by luminescent ATP assay. Cell line 222-2F12 responded to GL 14 at 3 μg/mL, and not to the other non-canonical GA peptides tested. The response to GMA in comparison to COP at the 10 μg/mL dose in this assay was 99.4%.
The cultures were restimulated on days 46, 56, 67 and 75. On Day 56, cell lines 222-2D8, 222-1H12, 222-2F12, 222-2B8, 222-105, 222-2B11, and 222-2E1 again were tested for reactivity to stimulation with 1, 3, or 10 μg/mL of GMA or COP in a proliferation assay. ATP levels were measured in all seven cell lines at 48 hours (results in FIGS. 5A-G) after stimulation. The control in the GMA series was no antigen, and the control in the COP series was MBP. […]

Donor 3 GMA T-Cell Lines = experiment: ATP proliferation assay (CellTiter Glo), Donor 3 GMA T-cell lines, incl. reactivity to non-canonical GA peptides; type: cell-based, human; details: for proliferation response to non-canonical GA peptides: 0, 1, 3, 10 μg/mL; for Non-Canonical Peptide Reactivity: at least one proliferation value >=2 times no antigen control

poly (Glu-Lys; 1:4) [GL 14]
proliferation response to non-canonical GA peptides (Donor 1 COP T-Cell Lines; 222-2F12, Day 56, 0, 3, 10, 30 μg/mL, GL 14 response at 3 μg/mL): responded
luminescent ATP proliferation assay, mean (Donor 1 COP T-Cell Lines; 222-2F12, Day 56, 3 μg/mL): 17007
luminescent ATP proliferation assay, mean (Donor 1 COP T-Cell Lines; 222-2F12, Day 56, 10 μg/mL): 331
luminescent ATP proliferation assay, mean (Donor 1 COP T-Cell Lines; 222-2F12, Day 56, 30 μg/mL): 203
Non-Canonical Peptide Reactivity (Donor 1 COP T-Cell Lines; 222-2F12, at least one proliferation value >=2 times no antigen control): GL 14
Reactive T-Cell Line (Donor 1 COP T-Cell Lines; Donor 1 COP lines, at least a 50% increase in proliferation relative to a control after stimulation with the non-canonical GA peptide): 222-2F12 (Donor 1)
Nonreactive T-Cell Line (Donor 1 COP T-Cell Lines; Donor 1 COP lines, stimulation with the non-canonical GA peptide): 222-1H12 (Donor 1)
proliferation response to non-canonical GA peptides (Donor 3 GMA T-Cell Lines; 165-B5G and 165-E7G, Day 55): responded well
Non-Canonical Peptide Reactivity (Donor 3 GMA T-Cell Lines; 165-B5G): GL 14
Non-Canonical Peptide Reactivity (Donor 3 GMA T-Cell Lines; 165-C5G): GL 14
Non-Canonical Peptide Reactivity (Donor 3 GMA T-Cell Lines; 165-E7G): GL 14
Non-Canonical Peptide Reactivity (Donor 3 GMA T-Cell Lines; 165-E9G): GL 14
Non-Canonical Peptide Reactivity (Donor 3 GMA T-Cell Lines; 165-F5G): GL 14
proliferation response to non-canonical GA peptides (Donor 3 GMA T-Cell Lines; 165-F10G, 165-C5G, 165-H11G, 165-C7C, 165-E9G, 165-F5G, minimum 55 days in culture): responded well
Non-Canonical Peptide Reactivity (Donor 3 GMA T-Cell Lines; 165-F10G): GL 14
Non-Canonical Peptide Reactivity (Donor 3 GMA T-Cell Lines; 165-H11G): GL 14
Reactive T-Cell Line (Donor 3 GMA T-Cell Lines; Donor 3 GMA lines, at least a 50% increase in proliferation relative to a control after stimulation with the non-canonical GA peptide): 165-B5G (Donor 3) and 165-C5G (Donor 3) and 165-E7G (Donor 3) and 165-E9G (Donor 3) and 165-F5G (Donor 3) and 165-F10G (Donor 3) and 165-H11G (Donor 3)
Proliferation (luminescent ATP assay), Mean (Donor 3 GMA T-Cell Lines; T-cell line 165-B5G, 1.25 μg/mL antigen, Day 55 of culturing, No Antigen Value 846): 3912 RLU
Proliferation (luminescent ATP assay), Mean (Donor 3 GMA T-Cell Lines; T-cell line 165-B5G, 2.5 μg/mL antigen, Day 55 of culturing, No Antigen Value 846): 3245 RLU
Proliferation (luminescent ATP assay), Mean (Donor 3 GMA T-Cell Lines; T-cell line 165-B5G, 5 μg/mL antigen, Day 55 of culturing, No Antigen Value 846): 501 RLU
Proliferation (luminescent ATP assay), Mean (Donor 3 GMA T-Cell Lines; T-cell line 165-B5G, 10 μg/mL antigen, Day 55 of culturing, No Antigen Value 846): 45 RLU
Proliferation (luminescent ATP assay), Mean (Donor 3 GMA T-Cell Lines; T-cell line 165-C5G, 1.25 μg/mL antigen, autologous B-LCL): 1412 RLU
Proliferation (luminescent ATP assay), Mean (Donor 3 GMA T-Cell Lines; T-cell line 165-C5G, 2.5 μg/mL antigen, autologous B-LCL): 5418 RLU
Proliferation (luminescent ATP assay), Mean (Donor 3 GMA T-Cell Lines; T-cell line 165-C5G, 5 μg/mL antigen, autologous B-LCL): 703 RLU
Proliferation (luminescent ATP assay), Mean (Donor 3 GMA T-Cell Lines; T-cell line 165-C5G, 10 μg/mL antigen, autologous B-LCL): 43 RLU
Proliferation (luminescent ATP assay), Mean (Donor 3 GMA T-Cell Lines; T-cell line 165-E7G, 1.25 μg/mL antigen, autologous B-LCL, Day 55): 10001 RLU
Proliferation (luminescent ATP assay), Mean (Donor 3 GMA T-Cell Lines; T-cell line 165-E7G, 2.5 μg/mL antigen, autologous B-LCL, Day 55): 14902 RLU
Proliferation (luminescent ATP assay), Mean (Donor 3 GMA T-Cell Lines; T-cell line 165-E7G, 5 μg/mL antigen, autologous B-LCL, Day 55): 4087 RLU
Proliferation (luminescent ATP assay), Mean (Donor 3 GMA T-Cell Lines; T-cell line 165-E7G, 10 μg/mL antigen, autologous B-LCL, Day 55): 58 RLU
Proliferation (luminescent ATP assay), Mean (Donor 3 GMA T-Cell Lines; T-cell line 165-E9G, 1.25 μg/mL antigen, autologous B-LCL): 145 RLU
Proliferation (luminescent ATP assay), Mean (Donor 3 GMA T-Cell Lines; T-cell line 165-E9G, 2.5 μg/mL antigen, autologous B-LCL): 801 RLU
Proliferation (luminescent ATP assay), Mean (Donor 3 GMA T-Cell Lines; T-cell line 165-E9G, 5 μg/mL antigen, autologous B-LCL): 268 RLU
Proliferation (luminescent ATP assay), Mean (Donor 3 GMA T-Cell Lines; T-cell line 165-E9G, 10 μg/mL antigen, autologous B-LCL): 38 RLU
Proliferation (luminescent ATP assay), Mean (Donor 3 GMA T-Cell Lines; T-cell line 165-F5G, 1.25 μg/mL antigen, autologous B-LCL): 559 RLU
Proliferation (luminescent ATP assay), Mean (Donor 3 GMA T-Cell Lines; T-cell line 165-F5G, 2.5 μg/mL antigen, autologous B-LCL): 2779 RLU
Proliferation (luminescent ATP assay), Mean (Donor 3 GMA T-Cell Lines; T-cell line 165-F5G, 5 μg/mL antigen, autologous B-LCL): 89 RLU
Proliferation (luminescent ATP assay), Mean (Donor 3 GMA T-Cell Lines; T-cell line 165-F5G, 10 μg/mL antigen, autologous B-LCL): 38 RLU
Proliferation (luminescent ATP assay), Mean (Donor 3 GMA T-Cell Lines; T-cell line 165-F10G, 1.25 μg/mL antigen, autologous B-LCL): 5153 RLU
Proliferation (luminescent ATP assay), Mean (Donor 3 GMA T-Cell Lines; T-cell line 165-F10G, 2.5 μg/mL antigen, autologous B-LCL): 19489 RLU
Proliferation (luminescent ATP assay), Mean (Donor 3 GMA T-Cell Lines; T-cell line 165-F10G, 5 μg/mL antigen, autologous B-LCL): 1990 RLU
Proliferation (luminescent ATP assay), Mean (Donor 3 GMA T-Cell Lines; T-cell line 165-F10G, 10 μg/mL antigen, autologous B-LCL): 53 RLU
Proliferation (luminescent ATP assay), Mean (Donor 3 GMA T-Cell Lines; T-cell line 165-H11G, 1.25 μg/mL antigen, autologous B-LCL): 144 RLU
Proliferation (luminescent ATP assay), Mean (Donor 3 GMA T-Cell Lines; T-cell line 165-H11G, 2.5 μg/mL antigen, autologous B-LCL): 4416 RLU
Proliferation (luminescent ATP assay), Mean (Donor 3 GMA T-Cell Lines; T-cell line 165-H11G, 5 μg/mL antigen, autologous B-LCL): 118 RLU
Proliferation (luminescent ATP assay), Mean (Donor 3 GMA T-Cell Lines; T-cell line 165-H11G, 10 μg/mL antigen, autologous B-LCL): 40 RLU
